Data set [1] deals with endogenous SK in MDA-MB-231 human breast carcinoma cells. Nature of the data set: Intact cell SK assay, conversion of [3H]sphingosine to [3H]S1P. The class given is cell-based. Particulars: MDA-MB-231 cells, 20 μg/ml compound. The text has this:
The cells take up the exogenous [^3H]sphingosine and convert it to [^3H]S1P through the action of endogenous SK. The resulting [^3H]S1P is isolated via charge-based separation as indicated above. […] For potency studies, MDA-MB-231 cells were exposure to varying concentrations of a test Compound and then assayed for conversion of [^3H]sphingosine to [^3H]S1P.

The subject of data set [2] is MCF-7 human breast adenocarcinoma cells. Nature of the data set: Cytotoxicity, SRB binding assay. In kind it is cell-based. Particulars: MCF7, inhibition of cell proliferation, 48 h, read-out: MCF-7 IC50. In short, it runs like this: (§1)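 Cells exposed to varying compound doses for 48 h, then survival measured by sulforhodamine B staining. IC50 is the concentration giving 50% proliferation inhibition, in μM, as mean±sd of replicate trials.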
In general terms: Sulforhodamine B stains cellular protein and so reports cell mass.

In data set [3] the test system is MCF-10A non-transformed human breast epithelial cells. Briefly: Cytotoxicity, SRB binding assay. The class given is cell-based. Conditions: inhibition of cell proliferation, 48 h, read-out: MCF-10A IC50. In short, it runs like this:
as §1

For a further data set, the system named is recombinant human SK. Nature of the data set: Inhibition of recombinant human SK, LC/MS/MS assay. The class given is biochemical. Conditions: 6 μg/ml compound. The gist of the method:
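Enzyme incubated with unlabeled sphingosine and ATP (1 mM, as in the radiometric format) for 30 min, then stopped and extracted with acetonitrile. S1P quantified by C8 reverse-phase HPLC–MS/MS against C17 sphingosine and C17 S1P internal standards using calibration curves.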

Data set [4] deals with mouse JC mammary adenocarcimona cell line growing subcutaneously in Balb/c mice. Conditions: JC tumor model, intraperitoneal (ip) or oral (po) administration. The procedure:
The antitumor activity of the representative SK inhibitors were evaluated using a syngeneic tumor model that uses the mouse JC mammary adenocarcimona cell line growing subcutaneously in immunocompetent Balb/c mice (Lee et al., 2003, Oncol Res 14: 49).
In FIG. 1, Balb/c mice, 6-8 weeks old, were injected subcutaneously with 10^6 JC cells suspended in phosphate-buffered saline. The SK inhibitors Compounds 62 and 57 were dissolved in PEG400 and administered to mice every-other day at a dose of 100 mg/kg. Body weights and tumor volumes were monitored daily. In FIG. 1, tumor growth is expressed as the tumor volume relative to day 1 for each animal.

Data set [5] has as its system C57BL/6 mice, DSS model of IBD. Nature of the data set: Acute DSS-colitis model. The class given is in vivo, mouse. Particulars: 2% DSS, 50 mg/kg oral daily. The procedure: We have conducted experiments with SK inhibitors using the dextran sulfate sodium (DSS) model of IBD. In these experiments, male C57BL/6 mice were provided with standard rodent diet and water ad libitum. After their acclimation, the animals were randomly divided into groups of 5 or 6 for DSS (40,000 MW from ICN Biomedicals, Inc., Aurora, Ohio)—and drug-treatment. The SK inhibitors were dissolved in PEG400, and given once daily by oral gavage in a volume of 0.1 mL per dose. Dipentum, an FDA-approved anti-colitis drug whose active ingredient, olsalazine, is converted to 5-aminosalicylic acid in vivo, was used as a positive control. The mice were given normal drinking water or 2% DSS and treated orally with an SK inhibitor or Dipentum at a dose of 50 mk/kg daily. The body weight of each animal was measured each day, and the Disease Activity Index (DAI) was scored for each animal on Days 4-6. On Day 6, the animals were sacrificed by cervical dislocation and the entire colon was removed and measured to the nearest 0.1 cm. Portions of the colons were then fixed, sectioned and their histologies were assessed on a blinded basis to determine their Histology Score. Other portions of the colons were used for biochemical analyses of inflammation markers.

Data set [6] has as its system mice, multiple cycles of DSS-induced inflammation. Nature of the data set: Chronic DSS-colitis model (35-day). The class given is in vivo, mouse. As to the method:
FIG. 13. Effects of Compound 62 on the DAI in the chronic DSS-colitis model. Mice received 2 cycles (7 days per cycle) of DSS (1.5% cycle 1 and 1% cycle 2), 2 cycles of normal drinking water and were randomized by DAI on Day 28 into groups of 8 mice. The mice were then treated as follows: No DSS (▪)—normal drinking water and orally dosed with PEG400 every day for 7 days (water control); DSS alone (▴)—drinking water containing 1.5% DSS and orally dosed with PEG daily for 7 days; DSS+Compound 62 (▾)—drinking water containing 1.5% DSS and orally dosed with Compound 62 (50 mg/kg) every day for 7 days; DSS+Dipentum (♦)—drinking water containing 1.5% DSS and orally dosed with Dipentum (50 mg/kg). *p<0.001 versus No DSS group.
A 35-day model of IBD was used to evaluate the effectiveness of the SK inhibitors in mice that experience multiple cycles of DSS-induced inflammation. This chronic model is similar to the acute model, except that the DSS concentration in the drinking water is lower and animals receive periodic exposure to DSS (DSS on days 1-7, water on Days 8-13, DSS on day 14-21, water on Days 22-27 and then DSS until the completion of the study on Day 35). In these experiments, treatment of the mice with an SK inhibitor or Dipentum began on Day 28 and continued daily until the completion of the study. The DAI index was monitored every other day until Day 28 and then daily until Day 35. Animals were sacrificed on Day 35, and changes in the colon length and cytokine profiles were measured.

The values that follow come from patent US8557800B2, “Sphingosine kinase inhibitors” (Apogee Biotechnology Corporation, priority 2005, dated 2013).

As for `CCn1c2ccccc2c2cc(NCC34CC5CC(C3)CC(c3ccc(Cl)cc3)(C5)C4)ccc21` [Compound 89, [3-(4-Chloro-phenyl)-adamantan-1-ylmethyl]-(9-ethyl-9H-carbazol-3-yl)-amine], in data set [1], the “Cellular S1P (% inhibition)” value is on record as 1%. For the same molecule, the IC50 worked out at 74 µM in data set [2] and 41 µM in data set [3]. In the data set on recombinant human SK, the “Recombinant SK (% inhibition)” value came out at 37%.
`Oc1ccc(NCC23CC4CC(C2)CC(c2ccc(Cl)cc2)(C4)C3)cc1` [Compound 76, 4-{[3-(4-Chloro-phenyl)-adamantan-1-ylmethyl]-amino}-phenol] came in with a melting point of 138 to 140 °C. For the same molecule, the IC50 in data set [2] turned out to be 5 µM. In addition, the “Recombinant SK (% inhibition)” value in the data set on recombinant human SK is given as 42%.
`O=C(/C=C/c1ccc2ccccc2c1)C12CC3CC(C1)CC(c1ccc(Cl)cc1)(C3)C2` [Compound 133, 1-[3-(4-Chloro-phenyl)-adamantan-1-yl]-3-naphthalen-2-yl-propenone] gave a melting point of 82 to 84 °C. In addition, the IC50 in data set [2] is 13 µM. In the data set on recombinant human SK, the “Recombinant SK (% inhibition)” value is 36%.
The molecule `CCn1c2ccccc2c2cc(/C=C/C(=O)C34CC5CC(C3)CC(c3ccc(Cl)cc3)(C5)C4)ccc21` [Compound 136, 1-[3-(4-Chloro-phenyl)-adamantan-1-yl]-3-(9-ethyl-9H-carbazol-3-yl)-propenone] registered a melting point of 138 to 140 °C. Further, the IC50 in data set [2] came out at 8 µM.
As to `CN1CCC(NC(=O)C23CC4CC(C2)CC(c2ccc(Cl)cc2)(C4)C3)CC1` [Compound 51, 3-(4-Chloro-phenyl)-adamantane-1-carboxylic acid (1-methyl-piperidin-4-yl)-amide], the In vivo activity result in data set [4] is “active - ip and po”. Moreover, the IC50 in data set [2] was found to be 8 µM; in data set [3], 25 µM. For the same molecule, the “Recombinant SK (% inhibition)” value in the data set on recombinant human SK is given as 84%.
On to `O=C(NCCc1ccc(O)c(O)c1)C12CC3CC(C1)CC(c1ccc(Cl)cc1)(C3)C2` [Compound 44, 3-(4-Chloro-phenyl)-adamantane-1-carboxylic acid [2-(3,4-dihydroxy-phenyl)-ethyl]-amide], for which the In vivo activity entry in data set [4] was “active - ip”. For the same molecule, the IC50 amounted to 6 µM in data set [2] and 9 µM in data set [3].
On the same counts, the results for `CC(NC1CCN(C)CC1)C12CC3CC(CC(c4ccc(Cl)cc4)(C3)C1)C2` (stereo not drawn) [Compound 107, {1-[3-(4-Chloro-phenyl)-adamantan-1-yl]-ethyl}-(1-methyl-piperidin-4-yl)-amine] are “active - ip”, 1 µM and 1 µM.
As for `O=C(NCc1ccc(O)c(O)c1)C12CC3CC(C1)CC(c1ccc(Cl)cc1)(C3)C2` [Compound 36, 3-(4-Chloro-phenyl)-adamantane-1-carboxylic acid 3,4-dihydroxy-benzylamide], the “Cellular S1P (% inhibition)” value in data set [1] is on record as 72%. For the same molecule, the IC50 in data set [2] amounted to 13 µM; in data set [3], 9 µM. Moreover, the “Recombinant SK (% inhibition)” value in the data set with recombinant human SK is reported as 37%.
In the case of `COc1ccc(CCNC(=O)C23CC4CC(C2)CC(c2ccc(Cl)cc2)(C4)C3)cc1` [Compound 41, 3-(4-Chloro-phenyl)-adamantane-1-carboxylic acid [2-(4-methoxy-phenyl)-ethyl]-amide], the “Cellular S1P (% inhibition)” value in data set [1] is listed as 23%. The results for the concentration for half-maximal inhibition (IC50) in data set [2] and in data set [3] were 6 µM and 71 µM, respectively. Further, the “Recombinant SK (% inhibition)” value in the data set on recombinant human SK amounted to 67%.
The molecule `O=C(/C=C/c1ccc(O)cc1)C12CC3CC(C1)CC(c1ccc(Cl)cc1)(C3)C2` [Compound 132, 1-[3-(4-Chloro-phenyl)-adamantan-1-yl]-3-(4-hydroxy-phenyl)-propenone] displayed a melting point of 87 to 89 °C. Besides, in data set [2], the IC50 came to 17 µM. Besides, in the data set on recombinant human SK, the “Recombinant SK (% inhibition)” value is on record as 8%.
For the molecule `O=C(NCCc1ccncc1)C12CC3CC(CC(C3)C1)C2` [Compound 63, Adamantane-1-carboxylic acid (2-pyridin-4-yl-ethyl)-amide], in data set [1], the “Cellular S1P (% inhibition)” value was 39%. Moreover, the IC50 in data set [2] is 11 µM. Also, in the data set on recombinant human SK, the “Recombinant SK (% inhibition)” value is listed as 0%.
Regarding `O=C(O)c1cc(/N=N/c2ccc(O)c(C(=O)O)c2)ccc1O` [Dipentum, olsalazine, reference compound], in data set [5], the “elevations of colon pro-inflammatory proteins IFN-γ, IL-1β, IL-6 and TNFα” value is “attenuated”; the “increase in colon myeloperoxidase (MPO) activity” value is “markedly attenuated”. In data set [5] (Day 6), the “Histology Score vs DSS-alone animals” value is given as “consistently lower” and the colon length result is given as “intermediate length”. Further, the “Disease Activity Index (intensity of IBD manifestations)” value in data set [5] (Days 4-6) is “reduced”. The colon length in data set [6] (50 mg/kg oral daily Day 28-35, DSS alone 4.9±0.2, water 7.8±0.3) came to 6.1±0.2 cm. Also, the “increase in DAI” value in data set [6] (50 mg/kg oral daily from Day 28 to Day 35, third DSS exposure) is “significantly suppressed”. Further, the “serum level of IL-6” value in data set [6] (at sacrifice, Day 35) is “reduced”. In data set [6] (treated during the final DSS cycle), the “colon levels of pro-inflammatory cytokines TNFα, IL-1β, IFN-γ and IL-6” value is recorded as “equivalent to the DSS-alone group”.

As a reminder, the IC50 is the midpoint of a concentration-inhibition curve. Broadly, the melting point is the temperature, or range, at which the solid turns liquid.
